Data reported in patent US20260306526A1, “COMBINATION THERAPY FOR BACTERIAL INFECTIONS COMPRISING ZINC-CHELATOR, BETA-LACTAM ANTIBIOTIC AND SERINE BETA-LACTAMASE INHIBITOR” (priority 2023, published 2026).
Values joined by “and” are separate entries in the source; they are usually repeats but may differ in a detail not shown here. Identical values can stand only once.

Assays:
Format in all cases: cell-based
[1] = test system: Klebsiella pneumoniae K66-45; test: MIC determination, fixed concentration of sBLI (Examples 8-9); settings: Example 9; with PIP and TAZ 16 μg/mL; NDM-1; caMHB, 29.4 μM Zn2+
Description: (§1) Antimicrobial susceptibility testing (AST) by broth microdilution (MIC determination) was performed according to The European Committee on Antimicrobial Susceptibility Testing (EUCAST) guidelines (see Reading guide for broth microdilution Version 5.0, 2024: https://www.eucast.org).
(§2) For combinations containing meropenem as the antibiotic, Sensititre™ FINMER meropenem 64-0.03 μg/mL plates (Thermo Fischer Diagnostics custom plates; YFINMER) were used in most of the experiments. For other antibiotics (and for meropenem whenever a higher start concentration than 64 μg/mL was needed) sterile clear round bottom polystyrene (non-treated) 96-well microplates (Corning 3788) were used for making serial two-fold dilutions of the antibiotic in cation-adjusted Mueller Hinton II broth (caMHB; Thermo Scientific, T3462, containing 29.4 μM Zn^2+ or MILLIPORE, 90922-500G, containing 5.6 μM Zn^2+), across the columns of the microtiter plate (128-0.06 μg/mL; columns 1-12).
(§3) The checkerboard plates were all modified by adding a serine β-lactamase inhibitor (sBLI) at a fixed concentration of 16 μg/mL. Additionally, the zinc chelator was added at various fixed concentrations. […]

[2] = test system: Acinetobacter baumannii ST25; test: MIC determination, fixed concentration of sBLI (Example 10); settings: with AMP and SUL 16 μg/mL, NDM-1, OXA-58, OXA-64, OXA-10, VEB-21, ADC-26, caMHB, 29.4 μM Zn2+
Description: as §1, §2, §3

[3] = test system: Pseudomonas aeruginosa ST773; test: MIC determination, fixed concentration of sBLI (Examples 19-26); settings: NDM-1, OXA-395, PDC-16, caMHB
Description: as §1, §2
The checkerboard plates were all modified by adding a serine β-lactamase inhibitor (sBLI) at a fixed concentration of 16 μg/mL. Additionally, the zinc chelator was added at various fixed concentrations. Samples were mixed so that all plates contained a control containing antibiotic alone (no sBLI, no zinc chelator), a sample containing antibiotic and sBLI (double combination; no zinc chelator), and a sample containing antibiotic, sBLI and zinc chelator (triple combination). All test wells used in each plate contained growth medium (caMHB), and inoculated bacteria at a final inoculum between 3-7×10^5 CFU/mL. […] Synergy for the triple combination (antibiotic, sBLI, and zinc chelator) was defined as when the MIC in any of the rows containing the zinc chelator in combination with antibiotic and sBLI (triple combination), was lower than for antibiotic alone and lower than for the antibiotic and sBLI double combination.
(§4) An X in rows 1~4 in the table indicates growth of the bacterial inoculum, while a blank cell indicates no growth. Concentrations (μg/mL) of MEM are given in row 0. TAZ and the zinc chelator were added in fixed concentrations (TAZ at 16 μg/mL in rows 2-4, zinc chelator at 16 μg/mL in row 3 and at 8 μg/mL in row 4). As a control, the effect of MEM alone was tested (row 1). All wells contained bacterial growth medium (caMHB, 29.4 μM Zn^2+) and were inoculated with the test bacterium. The grey cells indicate the meropenem MIC.
as §4, with “AZT” for “MEM”, “AVI” for “TAZ”, “(AVI” for “(TAZ”, “aztreonam” for “meropenem”
Two technical replicates were performed for each sample. An X in rows 1-8 in the table indicates growth of the bacterial inoculum, while a blank cell indicates no growth. Concentrations (μg/mL) of PIP are given in row 0. AVI and the zinc chelator were added in fixed concentrations (AVI at 16 μg/mL in rows 3-8, zinc chelator at 16 μg/mL in rows 5-6 and at 8 μg/mL in rows 7-8). As a control, the effect of PIP alone was tested (rows 1-2). All wells contained bacterial growth medium (caMHB, 29.4 μM Zn^2+) and were inoculated with the test bacterium. The grey cells indicate the piperacillin MIC.
as §4, with “PIP” for “MEM”, “All wells contained bacterial growth medium (caMHB, 29.4 μM Zn^2+) and were inoculated with the test bacterium. The grey cells indicate the meropenem MIC.” left out

CN(C[C@H](O)[C@@H](O)[C@H](O)[C@H](O)CO)C(=O)c1ccc(CN(Cc2ccccn2)Cc2ccccn2)nc1 [zinc chelator]
Synergy with the zinc chelator observed at concentration [1]: 16 µg/mL
Synergy with the zinc chelator observed at concentration [2]: 16 µg/mL
Synergy with the zinc chelator observed at concentration ([3]; Example 19, with MEM and TAZ 16 μg/mL, 29.4 μM Zn2+): 16 µg/mL
Synergy with the zinc chelator observed at concentration ([3]; Example 20, with AZT and AVI 16 μg/mL, 29.4 μM Zn2+): 16 µg/mL
Synergy with the zinc chelator observed at concentration ([3]; Example 21, with PIP and AVI 16 μg/mL, 29.4 μM Zn2+, 8 μg/mL for one replicate only, other replicate not interpretable): 16 µg/mL and 8 µg/mL
Synergy with the zinc chelator observed at concentration ([3]; Example 22, with PIP and TAZ 16 μg/mL, 29.4 μM Zn2+): 16 µg/mL
Synergy with the zinc chelator observed at concentration ([3]; Example 24, with MEM and TAZ 16 μg/mL, 5.6 μM Zn2+, 16 and 4 μg/ml not interpretable according to EUCAST): 8 µg/mL
Synergy with the zinc chelator observed at concentration ([3]; Example 26, with PIP and TAZ 16 μg/mL, 5.6 μM Zn2+, 16 μg/mL not interpretable according to EUCAST): 8 µg/mL and 4 µg/mL
